Experimental findings from US7683163B2, “Colchicoside analogues” (priority 2003, dated 2010) are described below.

Data set [1] can be described thus: acute toxicity (DL50 i.p.). The note with it: for DL50/DE50: toxic/active dose ratio.
In data set [2] the test system is Swiss male mice. Put plainly: rota-rod test (muscle relaxant activity). The class given is in vivo. The note with it: for Resistance time (sec. M ± S.E.): thirty minutes before the test. The protocol: Muscle relaxant activity was evaluated with the rota-rod test. Swiss male mice weighing 20-25 g were treated intraperitoneally with the β-D isomer of compound (Ib) at doses of 1-3-10 mg/kg, thirty minutes before the test. Relaxant activity on striated muscles was evaluated by testing the resistance of the mice to the stimuli of a rotating plane revolving at increasing rate, from 2 to 50 r.p.m.

[3] abbreviates: rota-rod, mice, dose 1 mg/Kg i.p.
Where [4] appears, read: rota-rod, mice, dose 3 mg/Kg i.p.
[5] abbreviates: rota-rod, mice, dose 10 mg/Kg i.p.
Where [6] appears, read: rota-rod, mice, i.p., Table 1, with limits in brackets.

`COc1c(O[C@@H]2O[C@H](CO)[C@@H](O)[C@H](O)[C@H]2O)cc2c(c1OC)-c1ccc(SC)c(=O)cc1[C@@H](NC(C)=O)CC2` [Thiocolchicoside isomer β-D, 3-demethyl-thiocolchicine glucoside, reference compound]: the DL50 turned out to be 20 mg/kg i.p in data set [1] (Table 2) and 20 mg/kg in data set [1] (i.p.). Moreover, the DL50/DE50 in data set [1] (i.p.) is 4.47. Further, the figures for the DE50 in data set [2] (Table 2) and in data set [2] (setting [6]) were 4.47 mg/kg i.p and 4.47 (3.16-7.01) mg/Kg, respectively. In addition, the “Resistance time (sec. M ± S.E.)” value came out at 345 ± 20 s in data set [2] (setting [3]), 265 ± 17 s in data set [2] (setting [4]) and 110 ± 12 s in data set [2] (setting [5]).
Take `COc1c(O[C@@H]2OC[C@@H](O)[C@H](O)[C@H]2O)cc2c(c1OC)-c1ccc(SC)c(=O)cc1C(NC(C)=O)CC2` (single isomer, unassigned) [Compound (Ib) isomer β-D, 3-O-β-D-xylopyranosyl-3-O-demethylthiocolchicine]: the DL50 in data set [1] (Table 2) is reported as 80 mg/kg i.p; in data set [1] (i.p.), 80 (63-94) mg/kg. Further, in data set [1] (i.p.), the DL50/DE50 was 35.87. For the same compound, the DE50 is recorded as 2.23 mg/kg i.p in data set [2] (Table 2) and 2.23 (1.84-2.82) mg/Kg in data set [2] (setting [6]). Further, the “muscle relaxant activity compared with thiocolchicoside” value in data set [2] (rota-rod, mice, 1-3-10 mg/kg i.p.) is given as “more active than thiocolchicoside”. Besides, the “Resistance time (sec. M ± S.E.)” value in data set [2] (setting [3]) is 270 ± 19 s; in data set [2] (setting [4]), 175 ± 14 s; in data set [2] (setting [5]) it was 80 ± 10 s.
